Literature values, collected in patent publication US20200268651A1, “STABLE VITAMIN B12 LIQUID FORMULATIONS” (priority 2019, published 2020).

Tests used:
[1] = ascorbic acid (AH2), studied at pH 1.0-8.0
[2] = long-term use

cyanocobalamin
pH of maximum rate of degradation in the presence of ascorbic acid [1]: 5.0 pH

C/C1=C2/[N-][C@H]([C@H](CC(N)=O)[C@@]2(C)CCC(=O)NC[C@@H](C)OP(=O)([O-])O[C@H]2[C@@H](O)[C@@H](n3cnc4cc(C)c(C)cc43)O[C@@H]2CO)[C@]2(C)N=C(/C(C)=C3N=C(/C=C4N=C1[C@@H](CCC(N)=O)C\4(C)C)[C@@H](CCC(N)=O)[C@]\3(C)CC(N)=O)[C@@H](CCC(N)=O)[C@]2(C)CC(N)=O.[Co+3].[OH-] [hydroxocobalamin]
pH of maximum rate of degradation in the presence of ascorbic acid [1]: 5.0 pH

CN(C)C(=N)N=C(N)N [metformin]
people with reduced serum levels of vitamin B12 [2]: up to 30%
